Measured values: ChEMBL document CHEMBL3885881, “DrugMatrix”

Organism: Rattus norvegicus
Assay: DrugMatrix - Regimen: Daily Repeat
Assay type: toxicity, organism-based, Sprague-Dawley
Parameters: regimen Daily Repeat, gender Male, age 6-8 weeks
Conditions: in vivo, po, route oral GAVAGE, […]; for ABSOLUTE BASOPHIL / ABSOLUTE EOSINOPHIL / ABSOLUTE LYMPHOCYTE / ABSOLUTE MONOCYTE / ABSOLUTE SEGMENTED NEUTROPHIL / BASOPHIL / EOSINOPHIL / ERYTHROCYTE COUNT / HEMATOCRIT / HEMOGLOBIN / LEUKOCYTE COUNT / LYMPHOCYTE / MEAN CORPUSCULAR HEMOGLOBIN / MEAN CORPUSCULAR HEMOGLOBIN CONCENTRATION / MEAN CORPUSCULAR VOLUME / MONOCYTE / NEUTROPHIL / NUCLEATED RED BLOOD CELLS / PLATELET COUNT: tissue Blood; for ALANINE AMINOTRANSFERASE / ALBUMIN / ALKALINE PHOSPHATASE / ASPARTATE AMINOTRANSFERASE / BLOOD UREA NITROGEN / CARBON DIOXIDE / CHLORIDE / CHOLESTEROL / CREATINE PHOSPHOKINASE / CREATININE / GLUCOSE / LACTATE DEHYDROGENASE / LIPASE / PHOSPHORUS / POTASSIUM / SODIUM / TOTAL BILIRUBIN / TOTAL PROTEIN / URIC ACID: tissue Plasma
[1] = 0 mg/kg, 72 h, dose level Control, time 3 day
[2] = 0 mg/kg, 120 h, dose level Control, time 5 day
[3] = 12 mg/kg, 72 h, dose level Low, time 3 day

In the case of `CO[C@H]1/C=C/O[C@@]2(C)Oc3c(C)c(O)c4c(O)c(c(/C=N/N5CCN(C6CCCC6)CC5)c(O)c4c3C2=O)NC(=O)/C(C)=C\C=C\[C@H](C)[C@H](O)[C@@H](C)[C@@H](O)[C@@H](C)[C@H](OC(C)=O)[C@@H]1C` [RIFAPENTINE], the “ABSOLUTE BASOPHIL” value [1] is reported as 0 CELLS/uL, the “ABSOLUTE EOSINOPHIL” value [1] is reported as 179.67 CELLS/uL and the “ABSOLUTE LYMPHOCYTE” value [1] is reported as 11440.17 CELLS/uL. The “ABSOLUTE MONOCYTE” value [1] was 128.83 CELLS/uL, the “ABSOLUTE SEGMENTED NEUTROPHIL” value [1] was 1051.33 CELLS/uL and the BASOPHIL [1] was 0%. For the same compound, the EOSINOPHIL [1] was 1.33%, the “ERYTHROCYTE COUNT” value [1] was 5.53 x10E6/uL and the HEMATOCRIT [1] was 34.75%. The HEMOGLOBIN [1] was 12.88 G/DL, the “LEUKOCYTE COUNT” value [1] was 12.8 x10E3/uL and the LYMPHOCYTE [1] was 89.5%. The “MEAN CORPUSCULAR HEMOGLOBIN” value [1] was 23.38 pg, the “MEAN CORPUSCULAR HEMOGLOBIN CONCENTRATION” value [1] was 37.12 G/DL and the “MEAN CORPUSCULAR VOLUME” value [1] was 62.88 fL. For the same compound, the MONOCYTE [1] was 1%, the NEUTROPHIL [1] was 8.17% and the “NUCLEATED RED BLOOD CELLS” value [1] was 0 /100WBC. For the same compound, the “PLATELET COUNT” value [1] was 1292 x10E3/uL, the “ALANINE AMINOTRANSFERASE” value [1] was 58.67 u/L and the ALBUMIN [1] was 4.25 G/DL. For the same compound, the “ALKALINE PHOSPHATASE” value [1] was 437.83 u/L, the “ASPARTATE AMINOTRANSFERASE” value [1] was 85.17 u/L and the “BLOOD UREA NITROGEN” value [1] was 14.17 mg/dL. For the same compound, the “CARBON DIOXIDE” value [1] was 28.67 mmol/L, the CHLORIDE [1] was 102.17 MEQ/L and the CHOLESTEROL [1] was 68.5 mg/dL. For the same compound, the “CREATINE PHOSPHOKINASE” value [1] was 271.83 u/L, the CREATININE [1] was 0.2 mg/dL and the GLUCOSE [1] was 156.67 mg/dL. For the same compound, the “LACTATE DEHYDROGENASE” value [1] was 112.33 u/L, the LIPASE [1] was 9.33 u/L and the PHOSPHORUS [1] was 11.1 mg/dL. The POTASSIUM [1] was 6.46 MEQ/L, the SODIUM [1] was 144.37 MEQ/L and the “TOTAL BILIRUBIN” value [1] was 0.23 mg/dL. The “TOTAL PROTEIN” value [1] was 5.8 G/DL, the “URIC ACID” value [1] was 1.55 mg/dL and the “ABSOLUTE BASOPHIL” value [2] was 0 CELLS/uL. The “ABSOLUTE EOSINOPHIL” value [2] was 87 CELLS/uL, the “ABSOLUTE LYMPHOCYTE” value [2] was 14743.5 CELLS/uL and the “ABSOLUTE MONOCYTE” value [2] was 187 CELLS/uL. For the same compound, the “ABSOLUTE SEGMENTED NEUTROPHIL” value [2] was 1499.17 CELLS/uL, the BASOPHIL [2] was 0% and the EOSINOPHIL [2] was 0.5%. For the same compound, the “ERYTHROCYTE COUNT” value [2] was 5.84 x10E6/uL, the HEMATOCRIT [2] was 36.3% and the HEMOGLOBIN [2] was 13.55 G/DL. The “LEUKOCYTE COUNT” value [2] was 16.52 x10E3/uL, the LYMPHOCYTE [2] was 89.5% and the “MEAN CORPUSCULAR HEMOGLOBIN” value [2] was 23.25 pg. The “MEAN CORPUSCULAR HEMOGLOBIN CONCENTRATION” value [2] was 37.35 G/DL, the “MEAN CORPUSCULAR VOLUME” value [2] was 62.27 fL and the MONOCYTE [2] was 1.17%. For the same compound, the NEUTROPHIL [2] was 8.83%, the “NUCLEATED RED BLOOD CELLS” value [2] was 0.17 /100WBC and the “PLATELET COUNT” value [2] was 1233.5 x10E3/uL. The “ALANINE AMINOTRANSFERASE” value [2] was 62.5 u/L, the ALBUMIN [2] was 4.17 G/DL and the “ALKALINE PHOSPHATASE” value [2] was 464.33 u/L. For the same compound, the “ASPARTATE AMINOTRANSFERASE” value [2] was 99.67 u/L, the “BLOOD UREA NITROGEN” value [2] was 14.33 mg/dL and the “CARBON DIOXIDE” value [2] was 26 mmol/L. For the same compound, the CHLORIDE [2] was 102.33 MEQ/L, the CHOLESTEROL [2] was 60.67 mg/dL and the “CREATINE PHOSPHOKINASE” value [2] was 402.5 u/L. The CREATININE [2] was 0.22 mg/dL, the GLUCOSE [2] was 173.5 mg/dL and the “LACTATE DEHYDROGENASE” value [2] was 518.17 u/L. The LIPASE [2] was 10.83 u/L, the PHOSPHORUS [2] was 11.4 mg/dL and the POTASSIUM [2] was 6.13 MEQ/L. For the same compound, the SODIUM [2] was 142.63 MEQ/L, the “TOTAL BILIRUBIN” value [2] was 0.17 mg/dL and the “TOTAL PROTEIN” value [2] was 6.1 G/DL. The “URIC ACID” value [2] was 1.97 mg/dL, the “ABSOLUTE BASOPHIL” value [3] was 0 CELLS/uL and the “ABSOLUTE EOSINOPHIL” value [3] was 44.67 CELLS/uL. For the same compound, the “ABSOLUTE LYMPHOCYTE” value [3] was 14914 CELLS/uL, the “ABSOLUTE MONOCYTE” value [3] was 225.33 CELLS/uL and the “ABSOLUTE SEGMENTED NEUTROPHIL” value [3] was 1216 CELLS/uL. For the same compound, the BASOPHIL [3] was 0%, the EOSINOPHIL [3] was 0.33% and the “ERYTHROCYTE COUNT” value [3] was 5.83 x10E6/uL. For the same compound, the HEMATOCRIT [3] was 34.83%, the HEMOGLOBIN [3] was 12.73 G/DL and the “LEUKOCYTE COUNT” value [3] was 16.4 x10E3/uL. The LYMPHOCYTE [3] was 91%, the “MEAN CORPUSCULAR HEMOGLOBIN” value [3] was 21.83 pg and the “MEAN CORPUSCULAR HEMOGLOBIN CONCENTRATION” value [3] was 36.57 G/DL. For the same compound, the “MEAN CORPUSCULAR VOLUME” value [3] was 59.7 fL, the MONOCYTE [3] was 1.33% and the NEUTROPHIL [3] was 7.33%. For the same compound, the “NUCLEATED RED BLOOD CELLS” value [3] was 0 /100WBC, the “PLATELET COUNT” value [3] was 1540.67 x10E3/uL and the “ALANINE AMINOTRANSFERASE” value [3] was 75 u/L. The ALBUMIN [3] was 4.13 G/DL, the “ALKALINE PHOSPHATASE” value [3] was 400.33 u/L and the “ASPARTATE AMINOTRANSFERASE” value [3] was 93.33 u/L. For the same compound, the “BLOOD UREA NITROGEN” value [3] was 15 mg/dL, the “CARBON DIOXIDE” value [3] was 28 mmol/L and the CHLORIDE [3] was 102 MEQ/L. The CHOLESTEROL [3] was 69.33 mg/dL, the “CREATINE PHOSPHOKINASE” value [3] was 485.67 u/L and the CREATININE [3] was 0.15 mg/dL. The GLUCOSE [3] was 166.67 mg/dL, the “LACTATE DEHYDROGENASE” value [3] was 138 u/L and the LIPASE [3] was 10 u/L. For the same compound, the PHOSPHORUS [3] was 11.53 mg/dL, the POTASSIUM [3] was 6.47 MEQ/L and the SODIUM [3] was 141.97 MEQ/L. The “TOTAL BILIRUBIN” value [3] was 0.23 mg/dL, the “TOTAL PROTEIN” value [3] was 5.43 G/DL and the “URIC ACID” value [3] was 1.6 mg/dL.
